Ends that are not written are not given here.
Assays:
[1] = Osteocalcin subcutaneous infusion in wt mice: insulin sensitivity after insulin injection; type: in vivo, mouse; settings: wild type mice, 0.3 or 3 ng/hour subcutaneously for 18 days, then insulin injection, 0-120 minutes, vs PBS
Experimental: FIG. 12. […] Wt mice were infused subcutaneously with indicated doses of recombinant osteocalcin or PBS for 18 days before receiving a single injection of insulin. Blood glucose was measured thereafter at indicated times.
Metabolic studies. For glucose tolerance test (GTT), glucose (2 g/kg body weight (BW)) was injected intraperitoneally (IP) after an overnight fast and blood glucose was monitored using blood glucose strips and the Accu-Check glucometer (Roche) at indicated times. For glucose stimulated insulin secretion test (GSIS), glucose (3 g/kg BW) was injected IP after an overnight fast; sera were collected from tails and insulin measured as described (Mauvais-Jarvis et al., 2000). For insulin tolerance test (ITT), mice were fasted for six hours, injected IP with insulin (0.2 U/kg BW) and blood glucose levels were measured at indicated times as described (Mauvais-Jarvis et al., 2002). ITT data are presented as percentage of initial blood glucose concentration. […] Streptozotocin ([…] single injection, Sigma) was injected IP and blood glucose measured as described above every 2 days thereafter. […] Food intake was measured using metabolic cages as the daily change of food weight. Energy expenditure was measured using metabolic cages connected to a calorimeter (Columbus Instrument). Heat values (Kcal/Hr) were recorded over 2 days and reported to each mouse BW. […]

[2] = Osteocalcin subcutaneous infusion in GTG-induced obesity; type: in vivo, mouse
Experimental: FIG. 14. […] Wt mice were injected with gold thioglucose (GTG) or vehicle to induce hyperphagia and obesity. Two weeks later they were implanted with subcutaneous osmotic pumps infusing […] of recombinant osteocalcin or PBS for 28 days before. Body weight gain was recorded thereafter at indicated days.
The effect of uncarboxylated osteocalcin on GTG-induced obesity was investigated (FIG. 14). Wild type mice were injected with gold thioglucose (GTG) to induce hyperphagia and obesity or vehicle. Two weeks later they were implanted with subcutaneous osmotic pumps infusing 1 ng/hr of recombinant uncarboxylated osteocalcin or PBS for 28 days. […] At 28 days, body weight was reduced by about 15% with uncarboxylated osteocalcin treatment.

[3] = system: Insulin and Cyclin D1 expression in WT islets; assay: Insulin and Cyclin D1 expression in islets cultured with uncarboxylated osteocalcin; type: cell-based, mouse; settings: 0.3 ng/ml (FIG. 7L)
Experimental: FIG. 7A-O. Esp−/− Mice Are a Model of Increased Osteocalcin Bioactivity. (FIGS. 7A-G) Comparison between 6-week-old WT, Esp−/, Ocn+/−, and Esp−/−; Ocn+/− mice. (FIG. 7A) Blood glucose levels. (FIG. 7B) Serum insulin levels. (FIG. 7C) Serum adiponectin levels. (FIG. 7D) GTT. (FIG. 7E) ITT. (FIG. 7F) GSIS test. (FIG. 7G) Quantification of the number of Ki67-immunoreactive cells in pancreatic islets. […] (FIG. 7K) Expression of Adiponectin in WT adipocytes cultured in presence of vehicle or of 1 ng/ml of commercially available carboxylated osteocalcin (Immunotopics) or bacterially produced uncarboxylated osteocalcin. (FIG. 7L) Expression of Insulin and Cyclin D1 in WT islets cultured in presence of 0.3 ng/ml of bacterially produced uncarboxylated osteocalcin or vehicle. (FIG. 7M) Metabolic parameters and total serum osteocalcin levels in control and obese patients. (FIG. 7N-O) Quantification of carboxylated osteocalcin (HA-bound osteocalcin) in control and obese patients. In (FIGS. 7A)-(C) and (FIGS. G)-(L): *p<0.05 versus WT (Student's t test); in (FIG. D)-(F), °p<0.05 versus WT and *p % 0.001 versus WT (ANOVA followed by post hoc analysis).
Mouse islets and adipocytes isolation. Islets were isolated using a Histopaque gradient (1077, Sigma). […]

With “uncarboxylated osteocalcin: Recombinant mouse osteocalcin bacterially produced as GST fusion, cleaved with thrombin; completely undercarboxylated at all three sites (YLGASVPSPDPLEPTREQCELNPACDELSDQYGLKTAYKRIYGITI; not fully specified; ends and bridges not checked; UniProt P86546 50-95, looked up)” the insulin sensitivity [1] was “increased”, the insulin sensitivity ([1]; listed as recombinant osteocalcin) was “increases insulin sensitivity” and the body weight gain ([2]; GTG-injected wild type mice, 1 ng/hr by osmotic pump for 28 days, from 7 days on, vs PBS) was “significantly reduced”. The “reduction of body weight” value ([2]; GTG-injected wild type mice, 1 ng/hr, at 28 days) was “about 15%”, the GTG-induced obesity ([2]; wt mice, infusion for 28 days (figure legend)) was “prevents GTG-induced obesity” and the “expression of Cyclin D1, marker of beta-cell proliferation” value [3] was “induced”. For the same substance, the insulin expression [3] was “induced insulin expression”.

From patent publication US9746463B2 (THE TRUSTEES OF COLUMBIA UNIVERSITY IN THE CITY OF NEW YORK, priority 2006, dated 2017)
